Biological target: human 11β-HSD1 (Homo sapiens, UniProt P28845)
Test: Inhibition of a microsomal preparation of 11β-HSD1, SPA (Biological Test Example 2)
Assay type: biochemical
Parameters: expressed in transfected cells; host or cells: CHO cells (microsomes)
Settings: read-out: Biological Test Example 2 (IC50 class)
Experimental: All reactions are carried out at room temperature in 96 well clear flexible PET Microbeta plates (PerkinElmer). […] After a 10 minute pre-incubation, 50 μL of enzyme solution containing microsomes isolated from CHO cells overexpressing human 11β-HSD1 (10-20 μg/ml of total protein) is added, and the plates are then incubated for 90 minutes at room temperature. The reaction is stopped by adding 50 μl of the SPA beads suspension containing […] 18β-glycyrrhetinic acid, 5 mg/ml protein A coated YSi SPA beads (GE Healthcare) and 3.3 μg/ml of anti-cortisol antibody (East Coast Biologics) in Superblock buffer (Bio-Rad). The plates are then shaken for 120 minutes at room temperature, and the SPA signal corresponding to [^3H]cortisol is measured on a Microbeta plate reader.

human 11β-HSD1, sequence (P28845 whole entry): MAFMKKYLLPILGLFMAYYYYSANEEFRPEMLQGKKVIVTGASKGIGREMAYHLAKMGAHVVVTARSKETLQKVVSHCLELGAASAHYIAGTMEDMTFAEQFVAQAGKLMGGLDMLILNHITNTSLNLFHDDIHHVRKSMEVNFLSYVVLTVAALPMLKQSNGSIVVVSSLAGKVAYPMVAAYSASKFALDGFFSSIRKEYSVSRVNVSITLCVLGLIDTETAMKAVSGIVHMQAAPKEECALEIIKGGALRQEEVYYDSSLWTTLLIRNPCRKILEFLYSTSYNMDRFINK

Row | SMILES | IC50 [nM]
1 | C=CCC1OC2(CCN(C(=O)NC3C4CC5CC(C4)CC3C5)CC2)c2c(Cl)cccc21 (stereo not drawn) [Example 102, 3-Allyl-7-chloro-N-(2-adamantyl)-3H-spiro[isobenzofuran-1,4′-piperidine]-1′-carboxamide] | < 50
2 | CN1C(C)(C)c2ccccc2C12CCN(C(=O)NC1C3CC4CC(C3)CC1C4)CC2 (stereo not drawn) [Example 103, N-(2-Adamantyl)-2,3,3-trimethylspiro[isoindoline-1,4′-piperidine]-1′-carboxamide] | < 50
3 | CC1(C)NC2(CCN(C(=O)NC3C4CC5CC(C4)CC3C5)CC2)c2c(Cl)cccc21 (stereo not drawn) [Example 104, 7-Chloro-N-(2-adamantyl)-3,3-dimethylspiro[isoindoline-1,4′-piperidine]-1′-carboxamide] | < 50
4 | CN1C(C)(C)c2cccc(Cl)c2C12CCN(C(=O)NC1C3CC4CC(C3)CC1C4)CC2 (stereo not drawn) [Example 105, 7-Chloro-N-(2-adamantyl)-2,3,3-trimethylspiro[isoindoline-1,4′-piperidine]-1′-carboxamide] | < 50
5 | COC(=O)CCS(=O)(=O)N1Cc2ccccc2C2(CCN(C(=O)OC3C4CC5CC(C4)CC3C5)CC2)C1 (stereo not drawn) [Example 107, 2-Adamantyl 2-(3-methoxy-3-oxopropylsulfonyl)-2,3-dihydro-1H-spiro[isoquinoline-4,4′-piperidine]-1′-carboxylate] | < 50
6 | O=C(CC1CC2(CCN(C(=O)NC3C4CC5CC(C4)CC3C5)CC2)c2c(Br)cccc21)N1CCNCC1 (stereo not drawn) [Example 110, 7-Bromo-N-(2-adamantyl)-3-(2-oxo-2-(piperazin-1-yl)ethyl)-2,3-dihydrospiro[indene-1,4′-piperidine]-1′-carboxamide] | < 50
7 | O=C(CC1CC2(CCN(C(=O)NC3C4CC5CC(C4)CC3C5)CC2)c2c(Br)cccc21)N1CCOCC1 (stereo not drawn) [Example 111, 7-Bromo-N-(2-adamantyl)-3-(2-morpholino-2-oxoethyl)-2,3-dihydrospiro[indene-1,4′-piperidine]-1′-carboxamide] | < 50
8 | CN1CCN(C(=O)CC2CC3(CCN(C(=O)NC4C5CC6CC(C5)CC4C6)CC3)c3c(Br)cccc32)CC1 (stereo not drawn) [Example 112, 7-Bromo-N-(2-adamantyl)-3-(2-(4-methylpiperazin-1-yl)-2-oxoethyl)-2,3-dihydrospiro[indene-1,4′-piperidine]-1′-carboxamide] | < 50
9 | CN(C)CCNC(=O)CC1CC2(CCN(C(=O)NC3C4CC5CC(C4)CC3C5)CC2)c2c(Br)cccc21 (stereo not drawn) [Example 114, 7-Bromo-N-(2-adamantyl)-3-(2-(2-(dimethylamino)ethylamino)-2-oxoethyl)-2,3-dihydrospiro[indene-1,4′-piperidine]-1′-carboxamide] | < 50
10 | CNCCN(C)C(=O)CC1CC2(CCN(C(=O)NC3C4CC5CC(C4)CC3C5)CC2)c2c(Br)cccc21 (stereo not drawn) [Example 115, 7-Bromo-N-(2-adamantyl)-3-(2-(methyl(2-(methylamino)ethyl)amino)-2-oxoethyl)-2,3-dihydrospiro[indene-1,4′-piperidine]-1′-carboxamide] | < 50
11 | CN(C)CCN(C)C(=O)CC1CC2(CCN(C(=O)NC3C4CC5CC(C4)CC3C5)CC2)c2c(Br)cccc21 (stereo not drawn) [Example 116] | < 50
12 | CN(C)CCCCNC(=O)CC1CC2(CCN(C(=O)NC3C4CC5CC(C4)CC3C5)CC2)c2c(Br)cccc21 (stereo not drawn) [Example 118, 7-Bromo-N-(2-adamantyl)-3-(2-(4-(dimethylamino)butylamino)-2-oxoethyl)-2,3-dihydrospiro[indene-1,4-r-piperidine]-1′-carboxamide] | < 50
13 | O=C(CC1CC2(CCN(C(=O)NC3C4CC5CC(C4)CC3C5)CC2)c2c(Br)cccc21)NCCN1CCNCC1 (stereo not drawn) [Example 119, 7-Bromo-N-(2-adamantyl)-3-(2-oxo-2-(2-(piperazin-1-yl)ethylamino)ethyl)-2,3-dihydrospiro[indene-1,4′-piperidine]-1′-carboxamide] | < 50
14 | O=C(CC1CC2(CCN(C(=O)NC3C4CC5CC(C4)CC3C5)CC2)c2c(Br)cccc21)NCCN1CCOCC1 (stereo not drawn) [Example 120, 7-Bromo-N-(2-adamantyl)-3-(2-(2-morpholinoethylamino)-2-oxoethyl)-2,3-dihydrospiro[indene-1,4′-piperidine]-1′-carboxamide] | < 50
15 | CN1CCN(CCNC(=O)CC2CC3(CCN(C(=O)NC4C5CC6CC(C5)CC4C6)CC3)c3c(Br)cccc32)CC1 (stereo not drawn) [Example 121, 7-Bromo-N-(2-adamantyl)-3-(2-(2-(4-methylpiperazin-1-yl)ethylamino)-2-oxoethyl)-2,3-dihydrospiro[indene-1,4′-piperidine]-1′-carboxamide] | < 50

Continued, values first:

Row | IC50 [nM] | SMILES
16 | < 50 | O=C(O)CCCC(=O)N1CC2(CCN(C(=O)NC3C4CC5CC(C4)CC3C5)CC2)c2ccccc21 (stereo not drawn) [Example 93, 5-(1′-(2-Adamantylcarbamoyl)spiro[indoline-3,4′-piperidine]-1-yl)-5-oxopentanoic acid]
17 | < 50 | CC(C)(CC(=O)O)CC(=O)N1CC2(CCN(C(=O)NC3C4CC5CC(C4)CC3C5)CC2)c2ccccc21 (stereo not drawn) [Example 96, 5-(1′-(2-Adamantylcarbamoyl)spiro[indoline-3,4′-piperidine]-1-yl)-3,3-dim ethyl-5-oxopentanoic acid]
18 | < 50 | CC(C)(CC(=O)N1Cc2ccccc2C2(CCN(C(=O)NC3C4CC5CC(C4)CC3C5)CC2)C1)C(=O)O (stereo not drawn) [Example 97, 4-(1′-(2-Adamantylcarbamoyl)-1H-spiro[isoquinoline-4,4′-piperidine]-2(3H)-yl)-2,2-dimethyl-4-oxobutanoic acid]
19 | 50 to 1000 | CC(C)(CC(=O)O)CC(=O)N1Cc2ccccc2C2(CCN(C(=O)NC3C4CC5CC(C4)CC3C5)CC2)C1 (stereo not drawn) [Example 98, 5-(1′-(2-Adamantylcarbamoyl)-1H-spiro[isoquinoline-4,4′-piperidine]-2(3H)-yl)-3,3-dimethyl-5-oxopentanoic acid]
20 | 50 to 1000 | O=C(O)C1CC1C(=O)N1Cc2ccccc2C2(CCN(C(=O)NC3C4CC5CC(C4)CC3C5)CC2)C1 [Example 99, (1S,2R)-2-(1′42-Adamantylcarbamoyl)-2,3-dihydro-1H-spiro[isoquinoline-4,4′-piperidine]-2-ylcarbonyl)cyclopropanecaxboxylic acid]
21 | < 50 | COC(=O)CCS(=O)(=O)N1Cc2ccccc2C2(CCN(C(=O)NC3C4CC5CC(C4)CC3C5)CC2)C1 (stereo not drawn) [Example 106, Methyl 3-(1′-(2-adamantylcarbamoyl)-1-H-spiro[isoquinoline-4,4′-piperidine]-2(3H)-ylsulfonyl)propanoate]
22 | < 50 | O=C(O)CCS(=O)(=O)N1Cc2ccccc2C2(CCN(C(=O)NC3C4CC5CC(C4)CC3C5)CC2)C1 (stereo not drawn) [Example 108, 3-(1′-(2-Adamantylcarbamoyl)-1H-spiro[isoquinoline-4,4′-piperidine]-2(3H)-ylsulfonyl)propanoic acid]
23 | < 50 | CN(C)CCCC(=O)N1Cc2ccccc2C2(CCN(C(=O)NC3C4CC5CC(C4)CC3C5)CC2)C1 (stereo not drawn) [Example 113, N-(2-Adamantyl)-2-(4-(dimethylamino)butanoyl)-2,3-dihydro-1H-spiro[isoquinoline-4,4′-piperidine]-1′-carboxamide]
24 | < 50 | CN(C)CCCNC(=O)CC1CC2(CCN(C(=O)NC3C4CC5CC(C4)CC3C5)CC2)c2c(Br)cccc21 (stereo not drawn) [Example 117, 7-Bromo-N-(2-adamantyl)-3-(2-(3-(dimethylamino)propylamino)-2-oxoethyl)-2,3-dihydrospiro[indene-1,4′-piperidine]-1′-carboxamide]
